Assay results from patent US20080318999A1, “Tricyclic Benzimidazoles and Their Use as Metabotropic Glutamate Receptor Modulators” (priority 2005, published 2008).

Target: T1, human mGluR2 (Homo sapiens, UniProt Q14416)
T1 construct: If the GTPgammaS assay gave them: nothing
Experiment: mGluR2 allosteric activator assays described herein (FLIPR calcium mobilization in HEK 293 mGluR2/CaR cells; [35S]-GTPγS binding with CHO membranes)
Type: cell-based
Conditions: potentiator / positive allosteric modulator activity at mGluR2; the patent does not say which of the two described assays (FLIPR or GTPγS)
Excerpt: The pharmacological properties of the compounds of the invention can be analyzed using standard assays for functional activity. Examples of glutamate receptor assays are well known in the art as described in, for example, Aramori et al., 1992, Neuron, 8:757; Tanabe et al., 1992, Neuron, 8:169; Miller et al., 1995, J. Neuroscience, 15:6103; Balazs, et al., 1997, J. Neurochemistry, 1997, 69:151. The methodology described in these publications is incorporated herein by reference. Conveniently, the compounds of the invention can be studied by means of an assay that measures the mobilization of intracellular calcium, [Ca^2+]i in cells expressing mGluR2.
Fluorometric Imaging Plate Reader (FLIPR) analysis was used to detect allosteric activators of mGluR2 via calcium mobilization. […]
FLIPR experiments were done using a laser setting of 0.8 W and a 0.4 second CCD camera shutter speed. […] An addition of test compound (0.01 μM to 30 μM in duplicate) was made after 10 seconds of baseline fluorescent readings were recorded on FLIPR. Fluorescent signals were then recorded for an additional 75 seconds at which point a second addition of DCG-IV (0.2 μM) was made and fluorescent signals were recorded for an additional 65 seconds. Fluorescent signals were measured as the peak height of the response within the sample period. […]

T1 sequence (Q14416 19-819 limits assumed): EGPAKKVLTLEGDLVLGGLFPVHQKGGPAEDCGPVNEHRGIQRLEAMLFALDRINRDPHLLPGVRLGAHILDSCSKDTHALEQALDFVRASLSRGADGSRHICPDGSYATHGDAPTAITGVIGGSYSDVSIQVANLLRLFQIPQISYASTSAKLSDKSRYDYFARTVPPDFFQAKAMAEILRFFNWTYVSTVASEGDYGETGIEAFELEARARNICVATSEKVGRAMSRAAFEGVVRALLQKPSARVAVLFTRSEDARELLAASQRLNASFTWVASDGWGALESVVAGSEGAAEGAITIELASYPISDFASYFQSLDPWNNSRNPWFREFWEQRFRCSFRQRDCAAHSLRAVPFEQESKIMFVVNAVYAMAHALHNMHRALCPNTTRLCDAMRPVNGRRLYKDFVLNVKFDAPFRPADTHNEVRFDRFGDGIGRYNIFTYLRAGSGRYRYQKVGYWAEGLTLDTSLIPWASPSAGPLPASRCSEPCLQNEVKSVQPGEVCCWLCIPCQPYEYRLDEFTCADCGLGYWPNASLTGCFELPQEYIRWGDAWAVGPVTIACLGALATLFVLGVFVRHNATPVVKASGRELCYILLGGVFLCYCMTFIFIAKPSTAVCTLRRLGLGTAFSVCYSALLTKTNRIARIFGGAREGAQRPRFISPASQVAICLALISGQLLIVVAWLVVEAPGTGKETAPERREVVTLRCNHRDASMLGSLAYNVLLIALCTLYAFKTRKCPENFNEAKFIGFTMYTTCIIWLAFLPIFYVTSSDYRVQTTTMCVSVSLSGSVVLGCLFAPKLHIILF

EC50: 1110 nM
SMILES: O=C1CCn2c(CN3CCC(c4ccc(F)cc4)CC3)nc3cc(F)cc1c32 [Example 28.1, 8-Fluoro-2-[4-(4-fluoro-phenyl)-piperidin-1-ylmethyl]-4,5,9a,9b-tetrahydroimidazo[4,5,1-ij]quinolin-6-one]
